From PubChem BioAssay AID1963422 (Molecular Pharmacology Branch, DTP, NCI, 2024)
pIC50: −log10 of the molar value.

System: 463943-066-T-J2-PDC complex spheroid growth
Experiment: Anticancer human tumor 463943-066-T-J2-PDC patient-derived colon adenocarcinoma cell line growth inhibition [Asc]
Settings: for pIC50: curve of first compound; for viability, T/C: stronger effect = lower value
Description: Multicellular complex tumor spheroid response to apoptosis pathway targeting inhibitors Alrizomadlin, Pelcitoclax, and Dasminapant in combination with a variety of drugs and investigational agents in selected tumor cell lines
The MDM2 inhibitor alrizomadlin, the Bcl-2/Bcl-xL inhibitor pelcitoclax, and the IAPs inhibitor dasminapant were evaluated both individually and in combination with standard of care and investigational anticancer small molecules within a complex spheroid model of solid tumors. . Complex spheroids include a stromal component modeled by human endothelial cells (HUVEC) and fibroblasts modeled by human mesenchymal stem cells (MSCs). The concentration ranges selected for each drug and investigational agent were based upon clinically achievable concentrations if the clinical Cmax of the agent was known.
Compounds. The drugs and investigational agents: alrizomadlin (APG-115; NSC831270), pelcitoclax (APG-1252; NSC835773), dasminapant (APG-1387;NSC834197), TAK-243 (NSC785004), copanlisib (NSC809693), olaparib (NSC753686), talazoparib (NSC767125), cobimetinib (NSC 768068), eltanexor (KPT-8602, NSC 794443), abemaciclib (NSC 768073), sotorasib (NSC818433), adagrasib (NSC 831453), MRTX-1133 (NSC 836407), Iadademestat (ORY1001, NSC 806812), and RMC-4630 (NSC839698), were obtained from the NCI Developmental Therapeutics Program Chemical Repository. The FDA-approved anticancer drug set is available from the Developmental Therapeutics Program at https://dtp.cancer.gov/organization/dscb/obtaining/available plates.htm. […] The stock solutions were prepared in dimethyl sulfoxide (DMSO, Sigma-Aldrich, St. Louis, MO, cat. D2650) at 800-fold the tested concentration and stored at -70 degrees C prior to their use. All drugs and investigational agents were tested over a range starting from a high concentration at or near the clinical Cmax and decreasing in half-log increments. If the clinical Cmax for an agent had not been determined, the highest concentration tested was 10 microM.
The patient-derived cancer (PDC) cell lines include five colon adenocarcinomas: 186277-243-T-J2-PDC, 616215-338-R-J1-PDC, 439559-082-T-J2-PDC, 463943-066-T-J2-PDC, and 519858-162-T-J1-PDC; three pancreatic carcinomas: 323965-272-R-J2-PDC, 521955-158-R6-J3-PDC, and 521955-158-R2-J5-PDC; two uterine sarcomas: 327498-152-R-J2-PDC and 993429-296-R-J1-PDC; two rhabdomyosarcomas: 755483-174-R-J1-PDC and 772245-204-R-J1-PDC; two soft tissue sarcomas: 126254-015-R-J1-PDC and 494315-158-R-J1-PDC; two malignant fibrous histiocytomas: 317291-083-R-J1-PDC and 596521-263-R-J1-PDC; two breast carcinomas: 171881-019-R-J1-PDC and 885512-296-R-J2-PDC; and one ovarian carcinoma: 6556581-035-R-J-PDC were obtained from the NCI PDMR, (https://pdmr.cancer.gov). The established cell lines HSSY-2 synovial sarcoma (RRID:CVCL 8719), SYO-1 synovial sarcoma (RRID:CVCL_7146), MPNST malignant peripheral neural sheath tumor were obtained from the Sloan Kettering Institute. The following established cell lines were purchased from the American Type Culture Collection (ATCC, Manassas, VA), Sor the received from the NCI repository:, PANC-1 pancreatic carcinoma (CRL-1469, RRID:CVCL_0480), OVCAR-5 ovarian carcinoma (RRID:CVCL_1628), OVCAR-8 ovarian carcinoma (RRID:CVCL_1629), , MCF-7 breast carcinoma (CRL-12584, RRID:CVCL_0031), MDA-MB-231 breast carcinoma (CRL-12532, RRID:CVCL_0062), NCI-H1876 small cell lung carcinoma (CRL-5902, RRID:CVCL_1503), NCI-H510A small cell lung carcinoma (HTB-184, RRID:CVCL_1565), NCI-H1417 (CRL-5869, RRID:CVCL_1469), and NCI-H196 small cell lung carcinoma (CRL-5823, RRID:CVCL_1509). Dr. Peter Houghton (Greehey Children's Cancer Research Institute, University of Texas Health Science Center, San Antonio, TX) provided Rh-18 rhabdomyosarcoma (RRID:CVCL_1659). Pooled donor human umbilical vein endothelial cells (HUVEC, Lonza, cat. CC-2519) and human mesenchymal stem cells (hMSC, Lonza, cat. PT-2501) were purchased from Lonza (Walkersville, MD).
Cell Culture. […]
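Also: compound exposure lasted 7 days.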
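For viability, T/C in this document: 100% = DMSO vehicle control wells.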

Compound: Cn1ncnc1[C@H]1c2n[nH]c(=O)c3cc(F)cc(c23)N[C@@H]1c1ccc(F)cc1 + CCN1C(C(=O)NC23CCC(C(=O)O)(CC2)CC3)C(c2cccc(Cl)c2F)C2(C(=O)Nc3cc(Cl)ccc32)C12CCCCC2
- pIC50 (second compound 0.00949 µM): < 7.00
- pIC50 (second compound 0.03 µM): < 7.00
- pIC50 (second compound 0.0949 µM): < 7.00
- pIC50 (second compound 0.3 µM): < 7.00
- pIC50 (second compound 0.949 µM): < 7.00
- pIC50 (second compound 3 µM): < 7.00
- viability, T/C (second compound 0.00949 µM, first compound 0.000316 µM): 102%
- viability, T/C (second compound 0.00949 µM, first compound 0.001 µM): 96.2%
- viability, T/C (second compound 0.00949 µM, first compound 0.00316 µM): 106%
- viability, T/C (second compound 0.00949 µM, first compound 0.01 µM): 97.2%
- viability, T/C (second compound 0.00949 µM, first compound 0.0316 µM): 100%
- viability, T/C (second compound 0.00949 µM, first compound 0.1 µM): 88.1%
- viability, T/C (second compound 0.03 µM, first compound 0.000316 µM): 98.7%
- viability, T/C (second compound 0.03 µM, first compound 0.001 µM): 98.6%
- viability, T/C (second compound 0.03 µM, first compound 0.00316 µM): 95.7%
- viability, T/C (second compound 0.03 µM, first compound 0.01 µM): 98.2%
- viability, T/C (second compound 0.03 µM, first compound 0.0316 µM): 96.5%
- viability, T/C (second compound 0.03 µM, first compound 0.1 µM): 90.1%
- viability, T/C (second compound 0.0949 µM, first compound 0.000316 µM): 101%
- viability, T/C (second compound 0.0949 µM, first compound 0.001 µM): 89.1%
- viability, T/C (second compound 0.0949 µM, first compound 0.00316 µM): 89.8%
- viability, T/C (second compound 0.0949 µM, first compound 0.01 µM): 89.6%
- viability, T/C (second compound 0.0949 µM, first compound 0.0316 µM): 92.8%
- viability, T/C (second compound 0.0949 µM, first compound 0.1 µM): 79.1%
- viability, T/C (second compound 0.3 µM, first compound 0.000316 µM): 85.4%
- viability, T/C (second compound 0.3 µM, first compound 0.001 µM): 85.3%
- viability, T/C (second compound 0.3 µM, first compound 0.00316 µM): 85.7%
- viability, T/C (second compound 0.3 µM, first compound 0.01 µM): 85.6%
- viability, T/C (second compound 0.3 µM, first compound 0.0316 µM): 81.5%
- viability, T/C (second compound 0.3 µM, first compound 0.1 µM): 79%
- viability, T/C (second compound 0.949 µM, first compound 0.000316 µM): 75.4%
- viability, T/C (second compound 0.949 µM, first compound 0.001 µM): 76.1%
- viability, T/C (second compound 0.949 µM, first compound 0.00316 µM): 72.5%
- viability, T/C (second compound 0.949 µM, first compound 0.01 µM): 77.9%
- viability, T/C (second compound 0.949 µM, first compound 0.0316 µM): 75.4%
- viability, T/C (second compound 0.949 µM, first compound 0.1 µM): 76.3%
- viability, T/C (second compound 3 µM, first compound 0.000316 µM): 71.1%
- viability, T/C (second compound 3 µM, first compound 0.001 µM): 70.2%
- viability, T/C (second compound 3 µM, first compound 0.00316 µM): 75.3%
- viability, T/C (second compound 3 µM, first compound 0.01 µM): 67.4%
- viability, T/C (second compound 3 µM, first compound 0.0316 µM): 73.2%
- viability, T/C (second compound 3 µM, first compound 0.1 µM): 74%
